Measured values from ChEMBL document CHEMBL4002627, “Quinolidene based monocarbonyl curcumin analogues as promising antimycobacterial agents: Synthesis and molecular docking study” (Bioorg Med Chem Lett, 2017).
Converted amounts (≈) assume the structure as drawn.

Key:
[1] = Cytotoxicity against human MCF7 cells assessed as growth inhibition at 3 ug/ml after 48 hrs by MTT assay relative to control; assay type: cell-based; settings: read-out: GI
[2] = Cytotoxicity against human A549 cells assessed as growth inhibition at 10 ug/ml after 48 hrs by MTT assay relative to control; assay type: cell-based; settings: read-out: GI
[3] = Cytotoxicity against human MCF7 cells assessed as growth inhibition at 10 ug/ml after 48 hrs by MTT assay relative to control; assay type: cell-based; settings: read-out: GI
[4] = Cytotoxicity against human MCF7 cells assessed as growth inhibition at 30 ug/ml after 48 hrs by MTT assay relative to control; assay type: cell-based; settings: read-out: GI
[5] = system: Mycobacterium tuberculosis; assay: Antimycobacterial activity against dormant state of Mycobacterium tuberculosis H37Ra assessed as growth inhibition at 3 ug/ml after 12 days by XTT reduction menadione assay relative to control; assay type: functional; settings: 288 h, read-out: GI
[6] = Cytotoxicity against human HCT116 cells assessed as growth inhibition at 30 ug/ml after 48 hrs by MTT assay relative to control; assay type: cell-based, HCT-116; settings: read-out: GI
[7] = Cytotoxicity against human HCT116 cells assessed as growth inhibition at 10 ug/ml after 48 hrs by MTT assay relative to control; assay type: cell-based, HCT-116; settings: read-out: GI
[8] = system: Mycobacterium tuberculosis; assay: Antimycobacterial activity against dormant state of Mycobacterium tuberculosis H37Ra by two fold dilution method; assay type: functional
[9] = Cytotoxicity against human A549 cells assessed as growth inhibition at 30 ug/ml after 48 hrs by MTT assay relative to control; assay type: cell-based; settings: read-out: GI
[10] = Cytotoxicity against human HCT116 cells assessed as growth inhibition at 3 ug/ml after 48 hrs by MTT assay relative to control; assay type: cell-based, HCT-116; settings: read-out: GI
[11] = Cytotoxicity against human A549 cells assessed as growth inhibition at 3 ug/ml after 48 hrs by MTT assay relative to control; assay type: cell-based; settings: read-out: GI
[12] = system: Mycobacterium tuberculosis; assay: Antimycobacterial activity against dormant state of Mycobacterium tuberculosis H37Ra assessed as growth inhibition at 10 ug/ml after 12 days by XTT reduction menadione assay relative to control; assay type: functional; settings: 288 h, read-out: GI
[13] = system: Mycobacterium tuberculosis; assay: Antimycobacterial activity against dormant state of Mycobacterium tuberculosis H37Ra assessed as growth inhibition at 30 ug/ml after 12 days by XTT reduction menadione assay relative to control; assay type: functional; settings: 288 h, read-out: GI
[14] = system: MCF7; assay: (§1) Cytotoxicity against human MCF7 cells assessed as growth inhibition after 48 hrs by MTT assay; assay type: cell-based; settings: mcf7, 48 h
[15] = system: A549; assay: (§2) Cytotoxicity against human A549 cells assessed as growth inhibition after 48 hrs by MTT assay; assay type: cell-based; settings: a549, 48 h
[16] = (§3) Cytotoxicity against human HCT116 cells assessed as growth inhibition after 48 hrs by MTT assay; assay type: cell-based, HCT-116; settings: HCT116 cells
[17] = system: HCT-116; assay: as §3; assay type: cell-based; settings: hct-116, 48 h
[18] = system: Pseudomonas fluorescens; assay: Antibacterial activity against Pseudomonas fluorescens ATCC 13525 after 8 hrs; assay type: functional; settings: ATCC 13525, 8 h
[19] = as §1; assay type: cell-based; settings: MCF7 cells
[20] = as §2; assay type: cell-based; settings: A549 cells
[21] = system: Escherichia coli; assay: Antibacterial activity against Escherichia coli ATCC […] after 8 hrs; assay type: functional
[22] = system: Staphylococcus aureus; assay: Antibacterial activity against Staphylococcus aureus ATCC 29213 after 12 hrs; assay type: functional; settings: ATCC 29213, 12 h
[23] = system: Bacillus subtilis; assay: Antibacterial activity against Bacillus subtilis ATCC 23857 after 12 hrs; assay type: functional; settings: ATCC 23857, 12 h

| SMILES | inhibition at 48 h, 3 ug/ml [1] [%] | inhibition at 48 h, 10 ug/ml [2] [%] | inhibition at 48 h, 10 ug/ml [3] [%] | inhibition at 48 h, 30 ug/ml [4] [%] | inhibition of growth at 3 µg/mL [5] [%] | inhibition at 48 h, 30 ug/ml [6] [%] | inhibition at 48 h, 10 ug/ml [7] [%] | MIC50 [8] [µg/mL] | MIC90 [8] [µg/mL] | inhibition at 48 h, 30 ug/ml [9] [%] | inhibition at 48 h, 3 ug/ml [10] [%] | inhibition at 48 h, 3 ug/ml [11] [%] | inhibition of growth at 10 µg/mL [12] [%] | inhibition of growth at 30 µg/mL [13] [%] | GI90 [14] [µg/mL] | GI90 [15] [µg/mL] | GI50 at 48 h [16] [µg/mL] | GI90 [17] [µg/mL] | MIC50 [22] [µg/mL] | MIC90 [22] [µg/mL] | also measured |
| --- | --- | --- | --- | --- | --- | --- | --- | --- | --- | --- | --- | --- | --- | --- | --- | --- | --- | --- | --- | --- | --- |
| CN1C/C(=C\c2cc3cc(F)ccc3nc2Cl)C(=O)/C(=C/c2cc3cc(F)ccc3nc2Cl)C1 | 7.8 | 0 | -0.6 | 32.3 | 39.7 | 12.7 | 10.3 | > 30 | > 30 | 0 | -0.4 | 0 | 14.7 | 34.1 | – | – | – | – | – | – | – |
| O=C1/C(=C/c2cc3cc(Cl)ccc3nc2Cl)CNC/C1=C\c1cc2cc(Cl)ccc2nc1Cl | 14.3 | 0 | 22.8 | 50 | 23.7 | -14.5 | -22.2 | 27.8 (≈ 54 µM) | > 30 | -12 | -18.3 | 2.3 | 24.5 | 53.8 | – | – | – | – | – | – | – |
| CC(=O)O[C@H]1C(=O)[C@@]2(C)[C@H]([C@H](OC(=O)c3ccccc3)[C@]3(O)C[C@H](OC(=O)[C@H](O)[C@@H](NC(=O)c4ccccc4)c4ccccc4)C(C)=C1C3(C)C)[C@]1(OC(C)=O)CO[C@@H]1C[C@@H]2O [PACLITAXEL] | – | – | – | – | – | – | – | – | – | – | – | – | – | – | 0.075 (≈ 0.0878 µM) | 0.0706 (≈ 0.0827 µM) | 0.128 (≈ 0.15 µM) | 5.715 (≈ 6.69 µM) | – | – | – |
| Cc1cccc2cc(/C=C3\CNC/C(=C\c4cc5cccc(C)c5nc4Cl)C3=O)c(Cl)nc12 | 0 | 0 | 0 | 0 | 4.6 | 13.7 | 10.4 | > 30 | > 30 | -13.9 | 3.2 | 0 | 32.7 | 12.6 | – | – | – | – | – | – | – |
| COc1ccc2nc(Cl)c(/C=C3\CN(C)C/C(=C\c4cc5cc(OC)ccc5nc4Cl)C3=O)cc2c1 | -7.1 | 0 | -7.4 | 39 | 52 | 10.2 | 12.2 | > 30 | > 30 | 0 | -2.1 | 0 | -5.8 | -0.8 | – | – | – | – | – | – | – |
| Cc1ccc2cc(/C=C3\CNC/C(=C\c4cc5ccc(C)cc5nc4Cl)C3=O)c(Cl)nc2c1 | -3.4 | -16.9 | 10.1 | 15.7 | 5.8 | 33.8 | 30.9 | 8.7 (≈ 18.3 µM) | 25.5 (≈ 53.8 µM) | 0 | 29.7 | 5.4 | 61.2 | 98.3 | > 100 | > 100 | > 100 | > 100 | > 30 | > 30 | MIC50 [18]: > 30 µg/mL; MIC90 [18]: > 30 µg/mL; GI50 at 48 h [19]: > 100 µg/mL; GI50 at 48 h [20]: > 100 µg/mL; MIC50 [21]: > 30 µg/mL; MIC90 [21]: > 30 µg/mL; MIC50 [23]: > 30 µg/mL; MIC90 [23]: > 30 µg/mL |
| CN1C/C(=C\c2cc3cc(Cl)ccc3nc2Cl)C(=O)/C(=C/c2cc3cc(Cl)ccc3nc2Cl)C1 | 22.8 | 48.9 | 42.8 | 58.7 | 35.4 | 11.7 | 11.9 | > 30 | > 30 | 48.9 | 2 | 0 | 7.2 | 43.1 | > 100 | > 100 | > 100 | > 100 | > 30 | > 30 | MIC50 [18]: > 30 µg/mL; MIC90 [18]: > 30 µg/mL; GI50 at 48 h [19]: 29.8 µg/mL (≈ 56.3 µM); GI50 at 48 h [20]: > 100 µg/mL; MIC50 [21]: > 30 µg/mL; MIC90 [21]: > 30 µg/mL; MIC50 [23]: > 30 µg/mL; MIC90 [23]: > 30 µg/mL |
| COc1ccc2nc(Cl)c(/C=C3\CNC/C(=C\c4cc5cc(OC)ccc5nc4Cl)C3=O)cc2c1 | 4.7 | 0 | 32.5 | 27.4 | 31.2 | 0 | 0 | 12.1 (≈ 23.9 µM) | 27.9 (≈ 55.1 µM) | 0 | 0 | 0 | 44.7 | 95.4 | > 100 | > 100 | 9.83 (≈ 19.4 µM) | > 100 | > 30 | > 30 | MIC50 [18]: > 30 µg/mL; MIC90 [18]: > 30 µg/mL; GI50 at 48 h [19]: 8.93 µg/mL (≈ 17.6 µM); GI50 at 48 h [20]: > 100 µg/mL; MIC50 [21]: > 30 µg/mL; MIC90 [21]: > 30 µg/mL; MIC50 [23]: > 30 µg/mL; MIC90 [23]: > 30 µg/mL |
| Cc1cccc2cc(/C=C3\CN(C)C/C(=C\c4cc5cccc(C)c5nc4Cl)C3=O)c(Cl)nc12 | 0 | 0 | 0 | 0 | 22.4 | 1.6 | 4.1 | 27 (≈ 55.3 µM) | > 30 | -20.4 | -4.3 | -11 | 15.3 | 51.5 | – | – | – | – | – | – | – |
| O=C1/C(=C/c2cc3ccccc3nc2Cl)CNC/C1=C\c1cc2ccccc2nc1Cl | 22.2 | 0 | 23.2 | 26.3 | 9.6 | 0 | 0 | > 30 | > 30 | -14.1 | 0 | 0 | 43.6 | 33.3 | – | – | – | – | – | – | – |
| Cc1ccc2nc(Cl)c(/C=C3\CNC/C(=C\c4cc5cc(C)ccc5nc4Cl)C3=O)cc2c1 | 0.9 | 0 | 17.7 | 14.2 | 9.9 | 21.8 | 16.3 | > 30 | > 30 | 0 | 5.5 | -18.7 | 28.5 | 34.4 | – | – | – | – | – | – | – |
| NC[C@H]1O[C@H](O[C@H]2[C@H](O)[C@@H](O[C@H]3O[C@H](CO)[C@@H](O)[C@H](N)[C@H]3O)[C@H](N)C[C@@H]2N)[C@H](O)[C@@H](O)[C@@H]1O [KANAMYCIN] | – | – | – | – | – | – | – | – | – | – | – | – | – | – | – | – | – | – | > 30 | 16 (≈ 33 µM) | – |
| Cc1ccc2nc(Cl)c(/C=C3\CN(C)C/C(=C\c4cc5cc(C)ccc5nc4Cl)C3=O)cc2c1 | 1.7 | 0 | 18.7 | 44.8 | -18.6 | 16.5 | 10.5 | > 30 | > 30 | 0 | 12.5 | 0 | 15.6 | 36.8 | – | – | – | – | – | – | – |
